Test results as given in patent publication US4576940A, “Anti-allergic 3-indolecarboxamides” (Yoshitomi Pharmaceutical Industries, Ltd., priority 1983, dated 1986).
Counter-ions that a name gives are not always drawn. Like-named read-outs stand apart in the source and are kept apart here.

Columns and labels:
[1] = prior art, in words; cited from earlier work
[2] = prior art, in words; cited from earlier work; remark: listed apart in the source
[3] = prior art, in words; cited from earlier work; remark: listed apart in the source
[4] = system: histamine induced asthma; assay: Inhibitory effect on histamine induced asthma in guinea pigs; format: in vivo, guinea pig (female Hartley); settings: Cavia porcellus, po, read-out: Antihistaminic activity (% inhibition)
Experimental: 2. Inhibitory effect on histamine induced asthma in guinea pigs
The experiment was performed according to the method of Suyama et al. which is described in Jpn. J. Allergol. 15, 549-556, 1966. Female Hartley guinea pigs weighing 300-400 g were used in groups of 5 or more. One hour after the oral administration of test compound solution, animals were placed in a transparent square box and exposed to a 0.2% histamine hydrochloride (Nakarai Chemicals, Ltd.) saline aerosol using an ultrasonic nebulizer (Nihon Kohden, TUR-3000). Protection was assessed during the exposure period (5 minutes) by the presence or absence of loss of righting due to dyspnea. The effects of test compounds were expressed in terms of percent inhibition.

[5] = molecular target: T1, 5-lipoxygenase (Cavia porcellus, UniProt A0A286X958); assay: 5-lipoxygenase inhibition (arachidonic acid induced chemiluminescence of peripheral leukocytes in guinea pigs); format: cell-based, guinea pig
T1 construct: Guinea pigs were anesthetized with ethyl ether, and the peripheral blood was collected in heparinized syringes; endogenous in cells; host or cells: guinea pig peripheral blood leukocytes (dextran sedimentation, erythrocytes lysed)
T1 sequence (A0A286X958 1-674): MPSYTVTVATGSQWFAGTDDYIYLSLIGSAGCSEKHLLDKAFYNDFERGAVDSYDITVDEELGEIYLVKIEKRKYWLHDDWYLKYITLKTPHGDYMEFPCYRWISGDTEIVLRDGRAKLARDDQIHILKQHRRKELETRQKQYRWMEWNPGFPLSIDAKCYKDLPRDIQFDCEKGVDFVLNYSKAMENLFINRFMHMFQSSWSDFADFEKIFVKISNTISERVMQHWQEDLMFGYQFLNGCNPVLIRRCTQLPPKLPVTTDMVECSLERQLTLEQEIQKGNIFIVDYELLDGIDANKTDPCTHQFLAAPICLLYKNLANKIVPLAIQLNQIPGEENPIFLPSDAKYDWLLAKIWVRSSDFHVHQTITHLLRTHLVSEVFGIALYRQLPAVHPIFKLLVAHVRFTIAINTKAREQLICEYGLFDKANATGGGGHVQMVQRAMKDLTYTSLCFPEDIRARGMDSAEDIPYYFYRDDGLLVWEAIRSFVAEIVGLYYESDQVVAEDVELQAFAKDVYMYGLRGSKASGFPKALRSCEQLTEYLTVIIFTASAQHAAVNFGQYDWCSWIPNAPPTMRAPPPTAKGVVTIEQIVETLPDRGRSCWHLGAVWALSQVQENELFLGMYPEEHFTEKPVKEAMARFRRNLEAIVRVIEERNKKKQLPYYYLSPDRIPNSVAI
Experimental: 1. Inhibitory activity on 5-lipoxygenase (Effect of test compounds on arachidonic acid induced chemiluminescence of peripheral leukocytes in guinea pigs)
(1) Isolation of leukocytes and preparation of leukocyte suspension
Guinea pigs were anesthetized with ethyl ether, and the peripheral blood was collected in heparinized syringes (10 U/ml, blood) from the abdominal aorta through a needle.
50 ml of a 6% dextran solution (molecular weight 177,000, Nakarai Chemicals Ltd.) was added to 100 ml of blood. This suspension was gently mixed, and was allowed to sediment for 60 minutes at room temperature. The upper leukocyte-rich suspension was centrifuged at 400×g for 10 minutes at room temperature. Tris-HCl buffer (pH 7.65) containing 5.0 ml of a 0.83% ammonium chloride solution was added to the cell pellet to lyse remaining erythrocytes. This suspension was centrifuged at 150×g for 10 minutes at 4° C. Eagle's MEM (10 ml) containing 10% fetal bovine serum (Flow Laboratories, Inc.) was added to the cell pellet. This suspension was centrifuged under the same conditions. The cell pellet was suspended in an equal volume of phosphate buffered saline (pH 7.4) containing 0.2% glucose and 0.2% bovine serum albumin, and this mixture was centrifuged under the same conditions. The above procedure was performed twice, and the cell pellet was suspended in the above buffer to adjust the leukocyte counts to 5×10^6 cells/ml.
(2) Chemiluminescence assay
Chemiluminescence was measured by the method of Yoshimoto et al. which is described in Biochem. Biophys. Res. Commun. 107, 779-784, 1982. Briefly, 0.3 ml of a leukocyte suspension was preincubated with 5 μl of a test compound solution of phosphate-buffered saline as controls, 0.05 ml of 1 mM luminol (Nakarai Chemicals, Ltd.) and 0.05 ml of 100 μM indomethacin (Sumitomo Chemical Co. Ltd.) After preincubation at 26° C. for 2 minutes, 100 μl of 2 mM arachidonic acid (Sigma) was added to the reaction mixture. Chemiluminescence was recorded continuously by an Aminco Chem-Glow model J4-7441S photometer equipped with a Hitachi model 056 recorder, and the peak height of luminol intensity was measured. The effects of test compounds were expressed as IC50 values (μM).

[6] = Acute toxicity in mice; settings: mouse, in vivo, 14 days observation
Experimental: (§1) 3. Acute toxicity in mice and rats
(§2) The acute toxicity of test compound No. 2 was evaluated in 120 male mice weighing 30-42 g and 120 female mice weighing 23-35 g, and in 56 male rats weighing 150-190 g and 56 female rats weighing 115-150 g by oral and intraperitoneal administration. […] LD50 values were calculated by probit method.

[7] = Acute toxicity in rats; settings: rat, in vivo, 14 days observation
Experimental: as §1, §2

[8] = background, in words; cited from earlier work
[9] = arachidonic acid induced chemiluminescence, guinea pig leukocytes, median inhibition concentration, read-out: 5-lipoxygenase inhibiting activity IC50

Q: What does the source list for `O=C(NC1CCN(CCc2c[nH]c3ccccc23)CC1)c1c[nH]c2ccccc12` [3-[2-(4-[indole-3-carboxamido]-1-piperidyl)ethyl]indole]?
A: anti-histaminic activity [1]: very weak anti-histaminic activity; hypotensive effect [2]: moderate hypotensive effect; anti-inflammatory action [3]: effective anti-inflammatory action

Q: Which results are given for `CN(C)CCOC(c1ccccc1)c1ccccc1` [Comparison B, Diphenhydramine, reference compound]?
A: inhibition in vivo at 5 mg/kg ([4]; 1 h): 20%; inhibition in vivo at 25 mg/kg ([4]; 1 h): 100%

Q: Which IC50 [5] does the source give for `CCCCn1c(C)c(C(=O)NC2CCN(CCc3ccccc3)CC2)c2cc(O)ccc21` [Example 2, 1-butyl-5-hydroxy-2-methyl-N-(1-(2-phenylethyl)-4-piperidyl)indole-3-carboxamide] here?
A: 450 nM

Q: What about the inhibition in vivo at 0.5 mg/kg ([4]; 1 h) of the same molecule?
A: 40%

Q: What about the inhibition in vivo at 2.5 mg/kg ([4]; 1 h) of the same molecule?
A: 100%

Q: And the LD50 at 336 h ([6]; ip, female mice)?
A: 1470 mg/kg

Q: What about the LD50 at 336 h ([6]; ip, male mice) of the same molecule?
A: 1430 mg/kg

Q: What about the LD50 at 336 h ([6]; po, female mice) of the same molecule?
A: > 10400 mg/kg

Q: And the LD50 at 336 h ([6]; po, male mice)?
A: > 12000 mg/kg

Q: What about the LD50 at 336 h ([7]; ip, female rats) of the same molecule?
A: 1930 mg/kg

Q: And the LD50 at 336 h ([7]; ip, male rats)?
A: 1940 mg/kg

Q: And the LD50 at 336 h ([7]; po, female rats)?
A: > 9000 mg/kg

Q: What about the LD50 at 336 h ([7]; po, male rats) of the same molecule?
A: > 9000 mg/kg

Q: For `Cc1c(C(=O)NC2CCN(CCc3ccccc3)CC2)c2cc(O)ccc2n1Cc1ccccc1` [Example 4, 1-benzyl-5-hydroxy-2-methyl-N-(1-(2-phenylethyl)-4-piperidyl)indole-3-carboxamide hydrochloride], which IC50 [5] is on record?
A: 850 nM

Q: What about the inhibition in vivo at 0.5 mg/kg ([4]; 1 h) of the same molecule?
A: 60%

Q: For `Cc1c(C(=O)NC2CCN(CCc3ccccc3)CC2)c2cc(O)ccc2n1C(C)C` [Example 5, 5-hydroxy-1-isopropyl-2-methyl-N-(1-(2-phenylethyl)-4-piperidyl)indole-3-carboxamide hydrochloride], which inhibition in vivo at 0.5 mg/kg ([4]; 1 h) is on record?
A: 100%

Q: Which inhibition in vivo at 0.5 mg/kg ([4]; 1 h) does the source give for `Cc1c(C(=O)NC2CCN(CCc3ccccc3)CC2)c2cc(O)ccc2n1CC(C)C` [Example 6, 5-Hydroxy-1-isobutyl-2-methyl-N-(1-(2-phenylethyl)-4-piperidyl)indole-3-carboxamide hydrochloride] here?
A: 0%

Q: What about the inhibition in vivo at 2.5 mg/kg ([4]; 1 h) of the same molecule?
A: 60%

Q: Which inhibition in vivo at 0.5 mg/kg ([4]; 1 h) does the source give for `CCCCCCn1c(C)c(C(=O)NC2CCN(CCc3ccccc3)CC2)c2cc(O)ccc21` [Example 10, 1-Hexyl-5-hydroxy-2-methyl-N-(1-(2-phenylethyl)-4-piperidyl)indole-3-carboxamide hydrochloride monohydrate] here?
A: 20%

Q: What about the inhibition in vivo at 2.5 mg/kg ([4]; 1 h) of the same molecule?
A: 100%

Q: With `Cc1c(C(=O)NC2CCN(CCc3ccccc3)CC2)c2cc(O)ccc2n1C1CCCCC1` [Example 12, 1-Cyclohexyl-5-hydroxy-2-methyl-N-(1-(2-phenylethyl)-4-piperidyl)indole-3-carboxamide hydrochloride hemihydrate] as the molecule, how does the IC50 [5] read?
A: 1700 nM

Q: What does the source list for `Cc1c(C(=O)NC2CCN(CCc3ccccc3)CC2)c2cc(O)ccc2n1CCc1ccccc1` [Example 16, 5-Hydroxy-2-methyl-1-(2-phenylethyl)-N-(1-(2-phenylethyl)-4-piperidyl)indole-3-carboxamide hydrochloride]?
A: IC50 [5]: 1000 nM; inhibition in vivo at 2.5 mg/kg ([4]; 1 h): 100%

Q: For `Cc1c(C(=O)NC2CCN(CCc3ccccc3)CC2)c2cc(O)ccc2n1-c1ccc(Cl)cc1` [Example 24, 1-(p-Chlorophenyl)-5-hydroxy-2-methyl-N-(1-(2-phenylethyl)-4-piperidyl)indole-3-carboxamide hydrochloride], which IC50 [5, 9] is on record?
A: 4200 nM

Q: With `Cc1c(C(=O)NC2CCN(CCCc3ccccc3)CC2)c2cc(O)ccc2n1-c1ccccc1` [Example 26, 5-Hydroxy-2-methyl-1-phenyl-N-(1-(3-phenylpropyl)-4-piperidyl)indole-3-carboxamide hydrochloride monohydrate] as the molecule, how does the IC50 [5, 9] read?
A: 2500 nM

Q: For `Cc1c(C(=O)NC2CCN(CCc3ccccc3)CC2)c2cc(O)ccc2n1-c1ccccc1` [Example 29, 5-Hydroxy-2-methyl-N-(1-(2-phenylethyl)-4-piperidyl)-1-phenylindole-3-carboxamide hydrochloride], which IC50 [5, 9] is on record?
A: 1400 nM

Q: And the inhibition in vivo at 0.5 mg/kg ([4]; 0.5 mg/kg, p.o., 1 hour before histamine aerosol, guinea pigs)?
A: 33%

Q: With `CCCCn1c(C)c(C(=O)NC2CCN(CCOc3ccccc3)CC2)c2cc(O)ccc21` [Example 31, 1-Butyl-5-hydroxy-2-methyl-N-(1-(2-phenoxyethyl)-4-piperidyl)indole-3-carboxamide] as the molecule, how does the IC50 [5] read?
A: 260 nM

Q: With `CCCCC/C=C\C\C=C/C=C/C=C/[C@@H](SC[C@H](NC(=O)CC[C@H](N)C(=O)O)C(=O)NCC(=O)O)[C@@H](O)CCCC(=O)O` [LTC4] as the molecule, how does the bronchoconstriction activity [8] read?
A: strong bronchoconstriction activity

Q: For `CCCCC/C=C\C\C=C/C=C/C=C/[C@@H](SC[C@H](N)C(=O)NCC(=O)O)[C@@H](O)CCCC(=O)O` [LTD4], which bronchoconstriction activity [8] is on record?
A: strong bronchoconstriction activity

Q: Which bronchoconstriction activity [8] does the source give for `CCCCC/C=C\C\C=C/C=C/C=C/[C@@H](SC[C@H](N)C(=O)O)[C@@H](O)CCCC(=O)O` [LTE4] here?
A: strong bronchoconstriction activity

Q: Which hypotensive effect [2] does the source give for `O=C(NC1CCN(CCc2c[nH]c3ccccc23)CC1)c1ccccc1` [indoramin, 3-[2-(4-benzamidopiperid-1-yl)ethyl]indole] here?
A: possesses hypotensive activity
